The numbers were not newly measured in US20170079478A1, “NITROUS OXIDE MIXTURES AND METHODS OF USE” (KORVATA INC., priority 2014, published 2017), which cites them from elsewhere.

The conditions of data set [1]: compared with nitrogen standardized to 1.0.

Where two headings read alike, the source gives them in different places.

On to `[N-]=[N+]=O` [Example N2O, nitrous oxide], for which the “RNP (Relative Narcotic Potency)” value in data set [1] was 39.

Regarding `[Ar]` [Ar, argon], the lipid solubility runs as follows: (0° C. and 15 psi) 300 µg/mL; (20° C. and 15 psi) 250 µg/mL. Besides, the “RNP (Relative Narcotic Potency)” value in data set [1] was 2.3.

For `[He]` [He, helium], the “RNP (Relative Narcotic Potency)” value in data set [1] was 0.045.

As for `[Xe]` [Xe, xenon], in data set [1], the “RNP (Relative Narcotic Potency)” value is 25.6.

For `[Kr]` [Kr, krypton], the “RNP (Relative Narcotic Potency)” value in data set [1] is given as 7.1.

Take `[Ne]` [Ne, neon]: in data set [1], the “RNP (Relative Narcotic Potency)” value is 0.3.
